From US8030354B2, “Substituted biphenyl GPR40 modulators” (Amgen Inc., priority 2007, dated 2011)

Columns and labels:
GPR40 [1] = target: T1, GPR40 (Homo sapiens, UniProt O14842); assay: Inositol phosphate accumulation assay (A9_GPR40 cells); format: cell-based; design: expressed in transfected cells; host or cells: CHO cells stably transfected with GPR40 and aequorin; details: inositol phosphate assay, A9_GPR40 cells, 1 hour; read-out: IP3 EC50
Description: Briefly, the Aequorin assays were performed on doubly stable CHO cells expressing GPR40 and Aequorin DNA. […] The luminescence was recorded over a period of 20 seconds with a Microlumat luminometer (Berthold). […] The inositol phosphate assay was performed on an A9 cell line stably transfected with GPR40 (A9_GPR40). The cells were incubated with different concentrations of compounds and [^3H] inositol accumulation was measured after 1 hour.
An A9 cell line stably transfected with GPR40 (A9_GPR40) was used in IP accumulation assays. A9_GPR40 cells were plated in 96-well plates containing 20,000 cells/well in DMEM containing 10% FBS. After the cells attached to the well surface, the media was replaced with inositol free DMEM containing 10% dialyzed FBS and 1 μCi, mL ^3H-inositol and incubated for 16 hours. Compounds were diluted in HBSS/10 mM LiCl containing a desired amount of HSA and added directly to cells. Following 1 hour incubation at 37° C., the media was replaced with 100 μL of 20 mM formic acid to quench the reaction. 50 μL of the extract was then added to 100 μL of SPA beads, incubated overnight, and measured on a TopCount the following day.

GPR40 [2] = target: T1, GPR40; assay: Cell-based aequorin assay (CHO cells stably expressing GPR40 and aequorin); design: expressed in transfected cells; host or cells: CHO cells stably transfected with GPR40 and aequorin; details: activation of human GPR40, CHO cells, 0.01% HSA
Procedure, shortened: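 CHO cells stably co-expressing GPR40 and aequorin, loaded with coelenterazine (1 ug/mL, 2 h, room temperature) in H/HBSS with 20 mM Hepes and 0.01% fatty acid-free HSA. Serially diluted compounds added; luminescence recorded over 20 s. EC50 from dose-response of maximum relative light units.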

T1 sequence (O14842 whole entry): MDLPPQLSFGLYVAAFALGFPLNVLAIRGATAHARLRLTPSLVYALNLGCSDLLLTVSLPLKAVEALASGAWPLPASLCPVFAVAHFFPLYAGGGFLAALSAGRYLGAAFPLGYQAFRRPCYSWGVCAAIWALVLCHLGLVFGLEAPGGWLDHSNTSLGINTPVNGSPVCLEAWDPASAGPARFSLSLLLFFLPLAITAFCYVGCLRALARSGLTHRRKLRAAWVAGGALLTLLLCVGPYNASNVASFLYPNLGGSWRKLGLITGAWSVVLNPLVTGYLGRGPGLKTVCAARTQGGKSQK

| SMILES | EC50 (GPR40 [1]) | EC50 (GPR40 [2]) |
| --- | --- | --- |
| CCCCOc1cc(COc2cccc([C@H](C)CC(=O)O)c2)ccc1-c1cc(OC)ccc1F (single isomer, unassigned) [Example 5, (3R)-3-(3-(((2Butyloxy)-2′-fluoro-5′-(methyloxy)-1,1′-biphenyl-4-yl)methyl)oxy)phenyl)butanoic acid or (3S)-3-(3-(((2-(butyloxy)-2′-fluoro-5′-(methyloxy)-1,1′-biphenyl-4-yl)methyl)oxy)phenyl)butanoic acid] | 100 to 1000 nM | 100 to 1000 nM |
| COc1ccc(F)c(-c2ccc(COc3cccc([C@@H](CC(=O)O)C(F)(F)F)c3)cc2C(C)(C)C)c1 (single isomer, unassigned) [Example 6, (3R)-3-(3-(((2-(1,1-Dimethylethyl)-2′-fluoro-5′-(methyloxy)-1,1′-biphenyl-4-yl)methyl)oxy)phenyl)-4,4,4-trifluorobutanoic acid or (3S)-3-(3-(((2-(1,1-dimethylethyl)-2′-fluoro-5′-(methyloxy)-1,1′-biphenyl-4-yl)methyl)oxy)phenyl)-4,4,4-trifluorobutanoic acid] | > 1000 nM | 1000 to 10000 nM |
| CCCCOc1cc(COc2cccc([C@@H](CC(=O)O)C(F)(F)F)c2)ccc1-c1cc(OC)ccc1F (single isomer, unassigned) [Example 7, (3R)-3-(3-(((2-(Butyloxy)-2′-fluoro-5′-(methyloxy)-1,1′-biphenyl-4-yl)methyl)oxy)phenyl)-4,4,4-trifluorobutanoic acid or (3S)-3-(3-(((2-(butyloxy)-2′-fluoro-5′-(methyloxy)-1,1′-biphenyl-4-yl)methyl)oxy)phenyl)-4,4,4-trifluorobutanoic acid] | 1000 to 10000 nM | 1000 to 10000 nM |
| COc1ccc(F)c(-c2ccc(COc3cccc([C@@H](CC(=O)O)C4CC4)c3)cc2C(C)(C)C)c1 (single isomer, unassigned) [Example 8, (3S)-3-Cyclopropyl-3-(3-(((2-(1,1-dimethylethyl)-2′-fluoro-5′-(methyloxy)-1,1′-biphenyl-4-yl)methyl)oxy)phenyl)propanoic acid or (3R)-3-cyclopropyl-3-(3-(((2-(1,1-dimethylethyl)-2′-fluoro-5′-(methyloxy)-1,1′-biphenyl-4-yl)methyl)oxy)phenyl)propanoic acid] | 100 to 1000 nM | 100 to 1000 nM |
| COc1cccc(-c2ccc(COc3cccc([C@@H](CC(=O)O)C4CC4)c3)cc2C(C)(C)C)c1 (single isomer, unassigned) [Example 12, (3S)-3-Cyclopropyl-3-(3-(((2-(1,1-dimethylethyl)-3′-(methyloxy)-1,1′-biphenyl-4-yl)methyl)oxy)phenyl)propanoic acid or (3R)-3-cyclopropyl-3-(3-(((2-(1,1-dimethylethyl)-3′-(methyloxy)-1,1′-biphenyl-4-yl)methyl)oxy)phenyl)propanoic acid] | 100 to 1000 nM | 100 to 1000 nM |
| CC[C@H](CC(=O)O)c1cccc(OCc2ccc(-c3cc(OC)ccc3F)c(C(C)(C)C)c2)c1 (single isomer, unassigned) [Example 17, (3R)-3-(3-(((2-(1,1-Dimethylethyl)-2′-fluoro-5′-(methyloxy)-1,1′-biphenyl-4-yl)methyl)oxy)phenyl)pentanoic acid or (3S)-3-(3-(((2-(1,1-dimethylethyl)-2′-fluoro-5′-(methyloxy)-1,1′-biphenyl-4-yl)methyl)oxy)phenyl)pentanoic acid] | 100 to 1000 nM | 100 to 1000 nM |
| CCCCOc1cc(COc2cccc([C@H](CC)CC(=O)O)c2)ccc1-c1cc(OC)ccc1F (single isomer, unassigned) [Example 18, (3R)-3-(3-(((2-(Butyloxy)-2′-fluoro-5′-(methyloxy)-1,1′-biphenyl-4-yl)methyl)oxy)phenyl)pentanoic acid or (3S)-3-(3-(((2-(butyloxy)-2′-fluoro-5′-(methyloxy)-1,1′-biphenyl-4-yl)methyl)oxy)phenyl)pentanoic acid] | 100 to 1000 nM | 100 to 1000 nM |
| CCCCOc1cc(COc2cccc([C@H](C)CC(=O)O)c2)ccc1-c1cccc(OC)c1 (single isomer, unassigned) [Example 20, (3R)-3-(3-(((2-(Butyloxy)-3′-(methyloxy)-1,1′-biphenyl-4-yl)methyl)oxy)phenyl)butanoic acid or (3S)-3-(3-(((2-(butyloxy)-3′-(methyloxy)-1,1′-biphenyl-4-yl)methyl)oxy)phenyl)butanoic acid] | 100 to 1000 nM | 100 to 1000 nM |
| CCC[C@H](CC(=O)O)c1cccc(OCc2ccc(-c3cccc(OC)c3)c(C(C)(C)C)c2)c1 (single isomer, unassigned) [Example 33, (3R)-3-(3-(((2-(1,1-Dimethylethyl)-3′-(methyloxy)-1,1′-biphenyl-4-yl)methyl)oxy)phenyl)hexanoic acid or (3S)-3-(3-(((2-(1,1-dimethylethyl)-3′-(methyloxy)-1,1′-biphenyl-4-yl)methyl)oxy)phenyl)hexanoic acid] | 100 to 1000 nM | 100 to 1000 nM |
| C[C@H](CC(=O)O)c1cccc(OCc2ccc(-c3cc(O)ccc3F)c(C(C)(C)C)c2)c1 (single isomer, unassigned) [Example 35, (3R)-3-(3-(((2-(1,1-Dimethylethyl)-2′-fluoro-5′-hydroxy-1,1′-biphenyl-4-yl)methyl)oxy)phenyl)butanoic acid or (3S)-3-(3-(((2-(1,1-dimethylethyl)-2′-fluoro-5′-hydroxy-1,1′-biphenyl-4-yl)methyl)oxy)phenyl)butanoic acid] | 100 to 1000 nM | 100 to 1000 nM |
| COc1ccc(F)c(-c2ccc(COc3cccc(C(C)CC(=O)O)c3)cc2C(C)(C)C)c1 (single isomer, unassigned) [Example 42, (3R)-3-(3-(((2-(1,1-Dimethylethyl)-2′-fluoro-5′-(methyloxy)-1,1′-biphenyl-4-yl)methyl)oxy)phenyl)butanoic acid or (3S)-3-(3-(((2-(1,1-dimethylethyl)-2′-fluoro-5′-(methyloxy)-1,1′-biphenyl-4-yl)methyl)oxy)phenyl)butanoic acid] | 1000 to 10000 nM | 100 to 1000 nM |
| CCC[C@H](CC(=O)O)c1cccc(OCc2ccc(-c3cc(OC)ccc3F)c(C(C)(C)C)c2)c1 (single isomer, unassigned) [Example 43, (3R)-3-(3-(((2-(1,1-Dimethylethyl)-2′-fluoro-5′-(methyloxy)-1,1′-biphenyl-4-yl)methyl)oxy)phenyl)hexanoic acid or (3S)-3-(3-(((2-(1,1-dimethylethyl)-2′-fluoro-5′-(methyloxy)-1,1′-biphenyl-4-yl)methyl)oxy)phenyl)hexanoic acid] | 100 to 1000 nM | 100 to 1000 nM |
| COc1ccc(F)c(-c2ccc(COc3cccc([C@H](C)CC(=O)O)c3)cc2OC(F)(F)F)c1 (single isomer, unassigned) [Example 46, (3R)-3-(3-(((2′-Fluoro-5′-(methyloxy)-2-((trifluoromethyl)oxy)-1,1′-biphenyl-4-yl)methyl)oxy)phenyl)butanoic acid or (3S)-3-(3-(((2′-fluoro-5′-(methyloxy)-2-((trifluoromethyl)oxy)-1,1′-biphenyl-4-yl)methyl)oxy)phenyl)butanoic acid] | 1000 to 10000 nM | 100 to 1000 nM |
| COc1cccc(-c2ccc(COc3cccc([C@H](C)CC(=O)O)c3)cc2C(C)(C)C)c1 (single isomer, unassigned) [Example 47, (3R)-3-(3-(((2-(1,1-Dimethylethyl)-3′-(methyloxy)-1,1′-biphenyl-4-yl)methyl)oxy)phenyl)butanoic acid or (3S)-3-(3-(((2-(1,1-dimethylethyl)-3′-(methyloxy)-1,1′-biphenyl-4-yl)methyl)oxy)phenyl)butanoic acid] | 100 to 1000 nM | 100 to 1000 nM |
| C=C(C)[C@H](CC(=O)O)c1cccc(OCc2ccc(-c3cc(OC)ccc3F)c(OCCCC)c2)c1 (single isomer, unassigned) [Example 50, (3S)-3-(3-(((2-(Butyloxy)-2′-fluoro-5′-(methyloxy)-1,1′-biphenyl-4-yl)methyl)oxy)phenyl)-4-methyl-4-pentenoic acid or (3R)-3-(3-(((2-(butyloxy)-2′-fluoro-5′-(methyloxy)-1,1′-biphenyl-4-yl)methyl)oxy)phenyl)-4-methyl-4-pentenoic acid] | 1000 to 10000 nM | 1000 to 10000 nM |
| C=CC[C@H](CC(=O)O)c1cccc(OCc2ccc(-c3cc(OC)ccc3F)c(C(C)(C)C)c2)c1 (single isomer, unassigned) [Example 51, (3R)-3-(3-(((2-(1,1-Dimethylethyl)-2′-fluoro-5′-(methyloxy)-1,1′-biphenyl-4-yl)methyl)oxy)phenyl)-5-hexenoic acid or (3S)-3-(3-(((2-(1,1-dimethylethyl)-2′-fluoro-5′-(methyloxy)-1,1′-biphenyl-4-yl)methyl)oxy)phenyl)-5-hexenoic acid] | 100 to 1000 nM | 100 to 1000 nM |
